In general, Ki refers to the equilibrium dissociation constant of an inhibitor or competing ligand from its target.

This note sets out measurements from ChEMBL document CHEMBL1124819, “1,9-Alkano-bridged 2,3,4,5-tetrahydro-1H-3-benzazepines with affinity for the alpha 2-adrenoceptor and the 5-HT1A receptor” (J Med Chem, 1990).

Experiment [1] has as its target T1, Adrenergic receptor alpha-2 (Rattus norvegicus, UniProt P22086+P19328+P22909).
T1 sequence (P22086 whole entry): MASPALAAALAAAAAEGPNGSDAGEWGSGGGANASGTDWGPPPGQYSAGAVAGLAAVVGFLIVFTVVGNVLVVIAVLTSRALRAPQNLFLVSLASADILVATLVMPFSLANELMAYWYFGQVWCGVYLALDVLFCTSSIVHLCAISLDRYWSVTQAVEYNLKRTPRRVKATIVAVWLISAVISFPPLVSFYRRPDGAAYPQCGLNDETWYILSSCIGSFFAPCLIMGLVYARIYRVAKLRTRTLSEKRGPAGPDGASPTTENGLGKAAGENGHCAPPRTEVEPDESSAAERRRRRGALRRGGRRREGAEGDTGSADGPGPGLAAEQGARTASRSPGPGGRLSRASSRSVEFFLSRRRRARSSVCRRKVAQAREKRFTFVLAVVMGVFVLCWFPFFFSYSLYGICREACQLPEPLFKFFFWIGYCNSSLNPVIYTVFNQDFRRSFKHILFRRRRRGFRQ
T1 sequence (P19328 whole entry): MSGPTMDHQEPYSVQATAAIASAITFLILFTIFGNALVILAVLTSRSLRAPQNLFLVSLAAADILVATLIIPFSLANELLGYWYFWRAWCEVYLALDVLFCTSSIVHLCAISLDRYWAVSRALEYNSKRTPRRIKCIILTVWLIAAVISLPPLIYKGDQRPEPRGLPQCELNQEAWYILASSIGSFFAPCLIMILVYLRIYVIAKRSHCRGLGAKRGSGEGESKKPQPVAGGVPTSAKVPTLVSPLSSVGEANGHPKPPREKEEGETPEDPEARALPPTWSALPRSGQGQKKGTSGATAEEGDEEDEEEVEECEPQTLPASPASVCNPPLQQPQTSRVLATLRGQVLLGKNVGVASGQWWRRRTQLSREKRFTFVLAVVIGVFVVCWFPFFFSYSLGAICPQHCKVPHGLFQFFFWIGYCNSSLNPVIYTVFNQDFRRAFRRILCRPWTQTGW
T1 sequence (P22909 whole entry): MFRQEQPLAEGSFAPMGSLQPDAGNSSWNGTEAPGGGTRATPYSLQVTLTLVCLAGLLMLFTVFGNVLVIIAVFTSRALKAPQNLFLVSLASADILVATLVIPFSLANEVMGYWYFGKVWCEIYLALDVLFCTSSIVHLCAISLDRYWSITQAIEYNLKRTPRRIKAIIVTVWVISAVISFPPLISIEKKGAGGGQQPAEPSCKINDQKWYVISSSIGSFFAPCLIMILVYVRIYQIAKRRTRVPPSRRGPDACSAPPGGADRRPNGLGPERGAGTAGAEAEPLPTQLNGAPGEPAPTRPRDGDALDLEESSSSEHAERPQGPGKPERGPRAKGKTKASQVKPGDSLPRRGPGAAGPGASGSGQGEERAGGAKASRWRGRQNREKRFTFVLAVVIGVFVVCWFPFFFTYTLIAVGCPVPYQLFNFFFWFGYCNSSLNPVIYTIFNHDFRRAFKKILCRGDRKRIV
The experiment is described as follows: Binding affinity against alpha-2 adrenergic receptor in rat cerebral cortical membrane using [3H]yohimbine as radioligand. The format is cell membranes.

Experiment [2] addresses T2, 5-hydroxytryptamine receptor 1A (Rattus norvegicus, UniProt P19327).
T2 sequence (P19327 whole entry): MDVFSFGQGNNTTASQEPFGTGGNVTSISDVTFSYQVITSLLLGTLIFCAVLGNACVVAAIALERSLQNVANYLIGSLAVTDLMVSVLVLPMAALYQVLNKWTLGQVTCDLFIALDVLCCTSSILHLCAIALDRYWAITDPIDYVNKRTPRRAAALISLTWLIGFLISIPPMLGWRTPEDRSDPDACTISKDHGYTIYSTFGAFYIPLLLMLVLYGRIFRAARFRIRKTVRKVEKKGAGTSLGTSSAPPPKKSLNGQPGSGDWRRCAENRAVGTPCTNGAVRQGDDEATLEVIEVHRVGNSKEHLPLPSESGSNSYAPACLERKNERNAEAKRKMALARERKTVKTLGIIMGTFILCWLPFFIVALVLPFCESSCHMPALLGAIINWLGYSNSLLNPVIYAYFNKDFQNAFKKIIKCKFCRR
The experiment is described as follows: Binding affinity against 5-hydroxytryptamine 1A receptor in rat cerebral cortical membrane using [3H]-8-OH-DPAT as radioligand. The format is cell membranes.

As for `Br.CN1CCc2cccc3c2C(CC3)C1` (stereo not given), the “Log Ki” value in experiment [1] is on record as -6.6. Also, in experiment [2], the Ki was 15.8 nM.
As for `Br.CN1CCc2c(Cl)ccc3c2C(CC3)C1` (stereo not given), in experiment [1], the “Log Ki” value was -8.1. The compound further gave a Ki in experiment [2] of 25.1 nM.
As to `Br.COc1ccc2c3c1CCN(C)CC3CC2` (stereo not given), in experiment [1], the “Log Ki” value was -6.9. Besides, the Ki in experiment [2] is 100 nM.
For `Br.CN1CCc2c(Cl)ccc3[nH]cc(c23)C1`, the “Log Ki” value in experiment [1] is recorded as -6.8. In addition, the Ki in experiment [2] is 31.6 nM.
For `Br.CN1CCc2ccc(Cl)c3c2C(CCCC3)C1` (stereo not given), in that order: -6.2 and 5010 nM.
Consider `Cl.O=C1CC2(CCCC2)CC(=O)N1CCCCN1CCc2cccc3c2C(CCC3)C1` (stereo not given), for which, in experiment [1], the “Log Ki” value was -5.9. In addition, the Ki in experiment [2] was 39.8 nM.
For the compound `Cl.c1ccc(CCN2CCc3cccc4c3C(CCC4)C2)cc1` (stereo not given), in experiment [1], the “Log Ki” value is reported as -6.2. For the same compound, the Ki in experiment [2] was 794 nM.
For `C=CCN1CCc2c(OC)ccc3c2C(CCC3)C1.Cl` (stereo not given), in that order: -6 and 12.6 nM.
Regarding `CCCN1CCc2cccc3c2C(CCC3)C1.Cl` (stereo not given), the “Log Ki” value in experiment [1] was -6. Affinity in experiment [2] was put at a Ki of 50.1 nM.
For `CCN1CCc2cccc3c2C(CCC3)C1.Cl` (stereo not given) the same measures were -6.2 and 50.1 nM.
For `C=CCOc1ccc2c3c1CCN(C)CC3CCC2.Cl` (stereo not given), in that order: -7.5 and 631 nM.
For `CN1CCc2c(O)ccc3c2C(CCC3)C1.Cl` (stereo not given), in that order: -6.2 and 316 nM.
In the case of `COc1ccc2c3c1CCN(C)CC3CCC2.Cl` (stereo not given), the “Log Ki” value in experiment [1] is listed as -6.8. In experiment [2], this compound gave a Ki of 25.1 nM.
`COc1ccc2c3c1CN(C)CC3CCC2.Cl` (stereo not given): the “Log Ki” value in experiment [1] is -6.8. The affinity in experiment [2] corresponds to a Ki of 200 nM.
Turning to `COc1ccc2c3c1CN(C)CCC3CCC2.Cl` (stereo not given), the “Log Ki” value in experiment [1] was -5.9. In experiment [2], this compound showed a Ki of 6310 nM.
For `CN1CCc2c[nH]c3cccc(c23)C1.Cl` the same measures were -6 and 1260 nM.
In turn, `COc1ccc2c3c1CCN(C)C3CCC2` (stereo not given) gave a Ki in experiment [2] of 3160 nM.
On to `CN1CCc2cccc3c2C(CCC3)C1.Cl` (stereo not given), for which the “Log Ki” value in experiment [1] is on record as -5.9. Affinity in experiment [2] was put at a Ki of 50.1 nM.
For `CN1CCc2cccc3c2[C@H](CCC3)C1.Cl`, in that order: -5.6 and 31.6 nM.
`O=C1CC2(CCCC2)CC(=O)N1CCCCN1CCc2ccccc2CC1` had an inhibition constant (Ki) in experiment [2] of 25.1 nM. This counts as double-digit nanomolar.
In the case of `CN1CCc2cccc3c2C(CCCC3)C1.Cl` (stereo not given), the “Log Ki” value in experiment [1] was -5.9. The compound also gave a Ki in experiment [2] of 398 nM.
For the compound `C=CCN1CCc2cccc3c2C(CCC3)C1.Cl` (stereo not given), the “Log Ki” value in experiment [1] is listed as -6.1. In experiment [2], this compound showed a Ki of 20 nM.
As for `CN1CCc2cccc3c2[C@@H](CCC3)C1.Cl`, in experiment [1], the “Log Ki” value is reported as -6.4. Also, in experiment [2], the Ki was 63.1 nM.
Take `Cl.c1cc2c3c(c1)CCNCC3CCC2` (stereo not given): the “Log Ki” value in experiment [1] is -5.9. Also, the Ki in experiment [2] was 200 nM.
With `CN1CCc2cccc(Cl)c2CC1`, in experiment [1], the “Log Ki” value is -8.1. Besides, the affinity in experiment [2], expressed as Ki, was 100 nM.
In the case of `Br.CN1CCc2cccc3[nH]cc(c23)C1`, the “Log Ki” value in experiment [1] was -6.3. For the same compound, the Ki in experiment [2] is 100 nM.
The compound `O=C1CC2(CCCC2)CC(=O)N1CCCCN1CCc2cccc(Cl)c2CC1` had a Ki in experiment [2] of 5.01 nM.
On to `CN1CCc2ccc(Cl)c3c2C(CC3)C1` (stereo not given), for which, in experiment [1], the “Log Ki” value is -6.8. This compound also showed a Ki in experiment [2] of 25.1 nM.
On to `C=CCN1CCc2c(Cl)ccc3c2C(CCC3)C1` (stereo not given), for which, in experiment [1], the “Log Ki” value is listed as -6.1. In addition, the Ki in experiment [2] is 7.94 nM.
For `CN1CCc2c(Cl)ccc3c2C(CCCC3)C1` (stereo not given), the “Log Ki” value in experiment [1] is listed as -6.5. Besides, in experiment [2], the affinity corresponds to a Ki of 79.4 nM.
Take `CN1CCc2ccc(Cl)c3c2[C@@H](CCC3)C1`: in experiment [1], the “Log Ki” value is recorded as -6.4. In experiment [2], this compound gave a Ki of 126 nM.
Turning to `CN1CCc2c(Cl)ccc3c2[C@@H](CCC3)C1`, the “Log Ki” value in experiment [1] is recorded as -7. The inhibitory constant (Ki) in experiment [2] is 20 nM.
As to `O=C1CC2(CCCC2)CC(=O)N1CCCCN1CCc2c(Cl)ccc3c2C(CCC3)C1` (stereo not given), the “Log Ki” value in experiment [1] is recorded as -5.5. Moreover, the Ki in experiment [2] is 7.94 nM.
For `CN1CCc2c(Cl)ccc3c2C(CCC3)C1` (stereo not given) the same measures were -6.9 and 10 nM.
As for `CN1CCc2c(Cl)ccc3c2[C@H](CCC3)C1`, the “Log Ki” value in experiment [1] was -6.6. Besides, the Ki in experiment [2] is 6.31 nM.
`CCN1CCc2c(Cl)ccc3c2C(CCC3)C1` (stereo not given): the “Log Ki” value in experiment [1] is given as -6.5. The compound further showed a Ki in experiment [2] of 15.8 nM.
As for `CN1CCc2ccc(Cl)c3c2[C@H](CCC3)C1`, the “Log Ki” value in experiment [1] is reported as -5.8. Also, in experiment [2], the Ki is 50.1 nM.
With `CCCN1CCc2c(Cl)ccc3c2C(CCC3)C1` (stereo not given), the “Log Ki” value in experiment [1] was -6.4. In experiment [2], the Ki is 31.6 nM.
Take `CN1CCc2ccc(Cl)c3c2C(CCC3)C1` (stereo not given): the “Log Ki” value in experiment [1] is recorded as -6. In experiment [2], the Ki was 79.4 nM.
